Patent US20240358611A1, “COMPOSITIONS” (SYMRISE AG, priority 2021, published 2024)

Assays:
[1] = system: LPS-stimulated, pro-inflammatory synthesis of PGE2 in RAW macrophages; assay: LPS-stimulated PGE2 synthesis in RAW 264.7 macrophages (EIA); assay type: cell-based, mouse; settings: 10 μM in combination with 10 μM Thymol, LPS 10 ng/ml, 24 h
Description: (§1) RAW 264.7 (mouse macrophage tumor cells) cells were provided from the University of Cordoba in Spain and maintained in RPMI1640 medium containing FCS.
(§2) Cells are seeded in 24-well-plates (approx. 500 000 cells/ml in 1 ml) for ELISA experiments.
(§3) Cells are incubated without or with LPS (10 ng/ml) for 24 h. The pyrozol derivates or additives such as Thymol or Menthol (3 doses, 1, 10, 100 μM) are added 30 min before LPS treatment as single dose or in combination. […] After 24 h, supernatants are removed, centrifuged, and investigated for PGE2 concentrations in EIA (PGE2, from Cayman, isoprostane from Cayman) or ELISA (IL-1B, IL-6, TNF-alpha, Biotechne)). Each dose is investigated 2 times.
(§4) Optimal dose range for additives and substituted azacycles was determined in a preliminary assays dose finding assay (data not shown). Thus, test items are investigated at 10 μM 100 μM or any combination of the two doses for additive effects. Synergism is defined as additive effect surpassing the hypothetical mathematical value of effective doses. The hypothetical value is depicted in all graphs as dashed line.

[2] = system: LPS-stimulated, pro-inflammatory synthesis of IL-1B in RAW macrophages; assay: LPS-stimulated IL-1B synthesis in RAW 264.7 macrophages (ELISA); assay type: cell-based, mouse; settings: LPS 10 ng/ml, 24 h
Description: as §1, §2, §3, §4

[3] = in combination with Menthol, 10 μM or 100 μM each, all tested combinations
[4] = in combination with Thymol, 10 μM or 100 μM each

| Compound | effect on LPS-stimulated PGE2 synthesis [1] | effect on LPS-stimulated IL-1 beta synthesis [2, 3] | effect on LPS-stimulated IL-1 beta synthesis [2, 4] | effect on LPS-stimulated IL-1 beta synthesis ([2]; applied as single substance) |
| --- | --- | --- | --- | --- |
| CCC(C)C(=O)N1CCCCC1c1ncc(-c2ccc(C)cc2)[nH]1 (stereo not drawn) [CoNo164, 2-methyl-1-[2-[5-(p-tolyl)-1H-imidazol-2-yl]-1-piperidyl]butan-1-one] | synergistically mitigated PGE2 synthesis | strong inhibition of IL-1 beta synthesis | strong synergistic soothing effect |  |
| CC1CCC(C(C)C)C(O)C1 (stereo not drawn) [Menthol] |  |  |  | stimulates IL-1 beta synthesis |
| CSC(C)C(=O)N1CCCC[C@@H]1c1ncc(-c2ccc(C)cc2)[nH]1 (stereo partly drawn) [CoNo11, 2-methylsulfanyl-1-[(1R)-2-[5-(p-tolyl)-1H-imidazol-2-yl]-1-piperidyl]-propan-1-one] |  | strong inhibition of IL-1 beta synthesis | strong synergistic soothing effect |  |
| CC[C@H](C)C(=O)N1CCCCC1c1ncc(-c2ccc(C)cc2)[nH]1 (stereo partly drawn) [CoNo166, (2S)-2-methyl-1-[2-[5-(p-tolyl)-1H-imidazol-2-yl]-1-piperidyl]butan-1-one] | synergistically mitigated PGE2 synthesis | strong inhibition of IL-1 beta synthesis | strong synergistic soothing effect |  |
